Laboratory results taken from PubChem BioAssay (NCI).
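1) Cells in 96-well plates. 2) Compound, 48 h, 5 concentrations. 3) Linear interpolation between surrounding doses. 4) Unreached endpoint = highest concentration. Definition used: TGI = concentration required for complete inhibition of growth.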

Assays:
Test in all cases: DTP human tumour cell line panel, 48 h
KM20L2 colon = test system: KM20L2 colon
NCI-H522 lung = test system: NCI-H522 lung
CAKI-1 renal = test system: CAKI-1 renal
SNB-78 CNS = test system: SNB-78 CNS
SK-MEL-28 melanoma = test system: SK-MEL-28 melanoma
XF 498 CNS = test system: XF 498 CNS
SF-295 CNS = test system: SF-295 CNS
NCI-H23 lung = test system: NCI-H23 lung
HOP-18 NSCLC = test system: HOP-18 NSCLC
EKVX NSCLC = test system: EKVX NSCLC
OVCAR-5 ovarian = test system: OVCAR-5 ovarian
CCRF-CEM leukemia = test system: CCRF-CEM leukemia
OVCAR-3 ovarian = test system: OVCAR-3 ovarian
DLD-1 colon = test system: DLD-1 colon
HOP-92 NSCLC = test system: HOP-92 NSCLC
M19-MEL melanoma = test system: M19-MEL melanoma
SK-MEL-5 melanoma = test system: SK-MEL-5 melanoma
SR leukemia = test system: SR leukemia
HCT-116 colon = test system: HCT-116 colon
HCC-2998 colon = test system: HCC-2998 colon
UACC-257 melanoma = test system: UACC-257 melanoma
SNB-19 CNS = test system: SNB-19 CNS
U251 CNS = test system: U251 CNS
LXFL 529 NSCLC = test system: LXFL 529 NSCLC
SNB-75 CNS = test system: SNB-75 CNS
A549 NSCLC = test system: A549 NSCLC
MALME-3M melanoma = test system: MALME-3M melanoma
SK-MEL-2 melanoma = test system: SK-MEL-2 melanoma
SK-OV-3 ovarian = test system: SK-OV-3 ovarian
UACC-62 melanoma = test system: UACC-62 melanoma
HT29 colon = test system: HT29 colon
SN12C renal = test system: SN12C renal
MOLT-4 leukemia = test system: MOLT-4 leukemia
NCI-H226 lung = test system: NCI-H226 lung
OVCAR-8 ovarian = test system: OVCAR-8 ovarian
IGROV1 ovarian = test system: IGROV1 ovarian
DMS 273 small cell lung = test system: DMS 273 small cell lung
K-562 leukemia = test system: K-562 leukemia
ACHN renal = test system: ACHN renal
SF-268 CNS = test system: SF-268 CNS
A498 renal = test system: A498 renal
M14 melanoma = test system: M14 melanoma
TK-10 renal = test system: TK-10 renal
SW-620 colon = test system: SW-620 colon
KM12 colon = test system: KM12 colon
SF-539 CNS = test system: SF-539 CNS
LOX IMVI melanoma = test system: LOX IMVI melanoma
UO-31 renal = test system: UO-31 renal
RXF 393 renal = test system: RXF 393 renal
RXF-631 renal = test system: RXF-631 renal
COLO 205 colon = test system: COLO 205 colon
786-0 renal = test system: 786-0 renal
OVCAR-4 ovarian = test system: OVCAR-4 ovarian
HOP-62 NSCLC = test system: HOP-62 NSCLC
DMS 114 small cell lung = test system: DMS 114 small cell lung
HL-60(TB) leukemia = test system: HL-60(TB) leukemia
NCI-H460 lung = test system: NCI-H460 lung
HCT-15 colon = test system: HCT-15 colon
RPMI-8226 leukemia = test system: RPMI-8226 leukemia

Measured: TGI

Fc1ccc2c(c1)cc1ccc3cccc4ccc2c1c34
> 100 µM: KM20L2 colon | NCI-H522 lung | CAKI-1 renal | SNB-78 CNS | SK-MEL-28 melanoma | XF 498 CNS | SF-295 CNS | NCI-H23 lung | HOP-18 NSCLC | EKVX NSCLC | OVCAR-5 ovarian | CCRF-CEM leukemia | OVCAR-3 ovarian | DLD-1 colon | HOP-92 NSCLC | M19-MEL melanoma | SK-MEL-5 melanoma | SR leukemia | HCT-116 colon | HCC-2998 colon | UACC-257 melanoma | SNB-19 CNS | U251 CNS | LXFL 529 NSCLC | SNB-75 CNS | A549 NSCLC | MALME-3M melanoma | SK-MEL-2 melanoma | SK-OV-3 ovarian | UACC-62 melanoma | HT29 colon | SN12C renal | MOLT-4 leukemia | NCI-H226 lung | OVCAR-8 ovarian | IGROV1 ovarian | DMS 273 small cell lung | K-562 leukemia | ACHN renal | SF-268 CNS | A498 renal | M14 melanoma | TK-10 renal | SW-620 colon | KM12 colon | SF-539 CNS | LOX IMVI melanoma | UO-31 renal | RXF 393 renal | RXF-631 renal | COLO 205 colon | 786-0 renal | OVCAR-4 ovarian | HOP-62 NSCLC | DMS 114 small cell lung | HL-60(TB) leukemia

C/C=C(\C)C(=O)N1c2ccccc2CC1c1c(C)[nH]c2ccccc12 (configuration not stated)
> 100 µM: KM20L2 colon | NCI-H522 lung | CAKI-1 renal | SNB-78 CNS | SK-MEL-28 melanoma | SF-295 CNS | NCI-H23 lung | EKVX NSCLC | OVCAR-5 ovarian | CCRF-CEM leukemia | OVCAR-3 ovarian | DLD-1 colon | M19-MEL melanoma | SR leukemia | HCT-116 colon | HCC-2998 colon | UACC-257 melanoma | SNB-19 CNS | U251 CNS | LXFL 529 NSCLC | SNB-75 CNS | A549 NSCLC | MALME-3M melanoma | SK-OV-3 ovarian | UACC-62 melanoma | HT29 colon | SN12C renal | MOLT-4 leukemia | NCI-H226 lung | OVCAR-8 ovarian | IGROV1 ovarian | NCI-H460 lung | DMS 273 small cell lung | HCT-15 colon | K-562 leukemia | ACHN renal | A498 renal | RPMI-8226 leukemia | M14 melanoma | TK-10 renal | SW-620 colon | KM12 colon | SF-539 CNS | LOX IMVI melanoma | UO-31 renal | RXF 393 renal | RXF-631 renal | 786-0 renal | OVCAR-4 ovarian | HOP-62 NSCLC | HL-60(TB) leukemia
69.6 µM: SK-MEL-2 melanoma
74.5 µM: COLO 205 colon
99.4 µM: HOP-92 NSCLC

COc1ccc(NS(=O)(=O)c2ccc(N=C3C=C(Nc4ccc(S(=O)(=O)Nc5ccc(OC)nn5)cc4)C(=O)c4ccccc43)cc2)nn1
33.1 µM: MALME-3M melanoma | SK-OV-3 ovarian
50.4 µM: OVCAR-4 ovarian
44.8 µM: OVCAR-3 ovarian
34.8 µM: OVCAR-8 ovarian
30.4 µM: LOX IMVI melanoma
30.6 µM: M19-MEL melanoma
36.2 µM: HT29 colon
52.9 µM: SF-268 CNS
88.8 µM: HOP-92 NSCLC
35.8 µM: UACC-257 melanoma
30.5 µM: KM12 colon
36.9 µM: DLD-1 colon
35.1 µM: SNB-75 CNS
32.9 µM: SW-620 colon
29.7 µM: NCI-H23 lung | HOP-18 NSCLC
> 100 µM: SNB-78 CNS | CCRF-CEM leukemia | SR leukemia | MOLT-4 leukemia | K-562 leukemia | RPMI-8226 leukemia | HL-60(TB) leukemia
29 µM: A498 renal
28.4 µM: DMS 273 small cell lung
32 µM: HCT-116 colon
33.2 µM: U251 CNS | SK-MEL-2 melanoma
45.7 µM: IGROV1 ovarian
35 µM: SK-MEL-5 melanoma
31.8 µM: KM20L2 colon | NCI-H522 lung
31.6 µM: SF-539 CNS
32.5 µM: COLO 205 colon
32.6 µM: UACC-62 melanoma
32.1 µM: SF-295 CNS
54.3 µM: XF 498 CNS
33.4 µM: SNB-19 CNS
63.1 µM: EKVX NSCLC
38.6 µM: SN12C renal
40.7 µM: CAKI-1 renal
31.7 µM: 786-0 renal
40 µM: TK-10 renal
31.5 µM: NCI-H460 lung
66.7 µM: DMS 114 small cell lung
31.3 µM: M14 melanoma
34.2 µM: NCI-H226 lung
32.2 µM: A549 NSCLC
34.1 µM: OVCAR-5 ovarian | HCC-2998 colon
32.8 µM: RXF 393 renal
32.4 µM: HCT-15 colon
31.4 µM: SK-MEL-28 melanoma
57.9 µM: LXFL 529 NSCLC
37.8 µM: ACHN renal | UO-31 renal

CC1(C)Oc2ccccc2[N+]([O-])=C1c1ccccc1
> 100 µM: KM20L2 colon | NCI-H522 lung | CAKI-1 renal | SNB-78 CNS | SK-MEL-28 melanoma | SF-295 CNS | NCI-H23 lung | CCRF-CEM leukemia | OVCAR-3 ovarian | DLD-1 colon | HOP-92 NSCLC | M19-MEL melanoma | SK-MEL-5 melanoma | SR leukemia | HCT-116 colon | HCC-2998 colon | UACC-257 melanoma | SNB-19 CNS | U251 CNS | LXFL 529 NSCLC | SNB-75 CNS | A549 NSCLC | MALME-3M melanoma | SK-OV-3 ovarian | UACC-62 melanoma | HT29 colon | SN12C renal | MOLT-4 leukemia | OVCAR-8 ovarian | IGROV1 ovarian | NCI-H460 lung | DMS 273 small cell lung | HCT-15 colon | K-562 leukemia | ACHN renal | SF-268 CNS | A498 renal | RPMI-8226 leukemia | M14 melanoma | SW-620 colon | SF-539 CNS | UO-31 renal | RXF 393 renal | RXF-631 renal | COLO 205 colon | 786-0 renal | OVCAR-4 ovarian | HOP-62 NSCLC | DMS 114 small cell lung | HL-60(TB) leukemia
